Measurements: ChEMBL document CHEMBL6153102, “Rational Design, Synthesis, and Biological Evaluation of Novel c-Met Degraders for Lung Cancer Therapy” (J Med Chem, 2025)
Activity calls are given as the source filed them. The calls are words filed in the database; no cut-off is given here.

Assays:
[1] = target: T1, Protein cereblon/Hepatocyte growth factor receptor (Homo sapiens, UniProt P08581+Q96SW2); assay: PROTAC activity at c-Met/CRBN in human EBC-1 cells assessed as reduction in TXNDC9 level at 15.6 nM incubated for 24 hrs by proteomics analysis; assay type: cell-based
[2] = Toxicity in BALB/c nude mouse assessed as liver damage at 10 to 20 mg/kg, ip administered for 7 days by H and E staining based analysis; assay type: organism-based; details: in vivo, 168 h, dose 10-20 mg/kg, time 7 day
[3] = Tmax in Sprague-Dawley rat at 5 mg/kg, ip measured upto 24 hrs by LC-MS/MS analysis; assay type: ADME, organism-based; details: in vivo
[4] = MRT (0 to t) in Sprague-Dawley rat at 2 mg/kg, iv measured upto 24 hrs by LC-MS/MS analysis; assay type: ADME, organism-based; details: in vivo
[5] = Metabolic stability in human liver microsome assessed as half life; assay type: ADME; details: liver microsomes
[6] = target: T1, Protein cereblon/Hepatocyte growth factor receptor; assay: PROTAC activity at c-Met/CRBN in human EBC-1 cells assessed as induction of c-Met degradation at 100 nM incubated for 24 hrs by Western blotting analysis relative to control; assay type: cell-based
[7] = Tmax in Sprague-Dawley rat at 2 mg/kg, iv measured upto 24 hrs by LC-MS/MS analysis; assay type: ADME, organism-based; details: in vivo
[8] = test system: EBC-1; assay: Induction of apoptosis in human EBC-1 cells assessed as late apoptotic cells at 50 nM incubated for 24 hrs by Annexin V/FITC staining based flow cytometry analysis (reference value: 1.65 %); assay type: functional
[9] = test system: Hs746T; assay: Antiproliferative activity against human Hs746T cells assessed as cell viability incubated for 72 hrs by MTT assay; assay type: functional, cell-based
[10] = test system: EBC-1; assay: Antitumor activity against human EBC-1 cells xenografted BALB/c nude mouse assessed as reduction in Ki67 expression at 10 to 20 mg/kg, ip administered for 7 days by immunohistochemical analysis; assay type: functional, organism-based; details: dose 10-20 mg/kg, time 7.0 day
[11] = MRT (0 to infinity) in Sprague-Dawley rat at 2 mg/kg, iv measured upto 24 hrs by LC-MS/MS analysis; assay type: ADME, organism-based; details: in vivo
[12] = test system: EBC-1; assay: Induction of apoptosis in human EBC-1 cells assessed as early apoptotic cells at 15 nM incubated for 24 hrs by Annexin V/FITC staining based flow cytometry analysis (reference value: 2.11 %); assay type: functional
[13] = test system: EBC-1; assay: Antitumor activity against human EBC-1 cells xenografted BALB/c nude mouse assessed as reduction in tumor volume at 10 mg/kg, ip administered for 7 days; assay type: functional; set-up: scale not given: the % may be the effect or the level left; details: time 7 day
[14] = target: T1, Protein cereblon/Hepatocyte growth factor receptor; assay: PROTAC activity at c-Met/CRBN in human EBC-1 cells assessed as effect on SALL4 level at 15.6 nM incubated for 24 hrs by proteomics analysis; assay type: cell-based
[15] = test system: EBC-1; assay: Induction of apoptosis in human EBC-1 cells assessed as upregulation of cleaved caspase-3 level incubated for 24 hrs by Western blot analysis; assay type: functional, cell-based; details: dose 5-50 nM
[16] = Toxicity in BALB/c nude mouse assessed as heart damage at 10 to 20 mg/kg, ip administered for 7 days by H and E staining based analysis; assay type: organism-based; details: in vivo, 168 h, dose 10-20 mg/kg, time 7 day
[17] = test system: EBC-1; assay: PROTAC activity at c-Met Y1230C mutant /CRBN in human EBC-1 cells assessed as induction of c-Met degradation up to 1000 nM incubated for 24 hrs by Western blotting analysis; assay type: cell-based
[18] = target: T1, Protein cereblon/Hepatocyte growth factor receptor; assay: PROTAC activity at c-Met/CRBN in human HCT-116 cells assessed as reduction in c-Met level at 3.9 to 125 nM incubated for 24 hrs in presence of tepotinib by Western blot analysis; assay type: cell-based; details: dose 3.9-125 nM
[19] = Toxicity in BALB/c nude mouse assessed as spleen damage at 10 to 20 mg/kg, ip administered for 7 days by H and E staining based analysis; assay type: organism-based; details: in vivo, 168 h, dose 10-20 mg/kg, time 7 day
[20] = test system: EBC-1; assay: Induction of apoptosis in human EBC-1 cells assessed as viable cells at 15 nM incubated for 24 hrs by Annexin V/FITC staining based flow cytometry analysis (reference value: 95.9%); assay type: functional; details: read-out: Activity
[21] = target: T1, Protein cereblon/Hepatocyte growth factor receptor; assay: PROTAC activity at c-Met/CRBN in human EBC-1 cells assessed as reduction in AKR1C3 level at 15.6 nM incubated for 24 hrs by proteomics analysis; assay type: cell-based
[22] = test system: EBC-1; assay: Induction of apoptosis in human EBC-1 cells assessed as late apoptotic cells at 15 nM incubated for 24 hrs by Annexin V/FITC staining based flow cytometry analysis (reference value: 1.65 %); assay type: functional
[23] = target: T1, Protein cereblon/Hepatocyte growth factor receptor; assay: PROTAC activity at c-Met/CRBN in human EBC-1 cells assessed as reduction in IFRD1 level at 15.6 nM incubated for 24 hrs by proteomics analysis; assay type: cell-based
[24] = target: T1, Protein cereblon/Hepatocyte growth factor receptor; assay: PROTAC activity at c-Met/CRBN in human EBC-1 cells assessed as reduction in FOSL1 level at 15.6 nM incubated for 24 hrs by proteomics analysis; assay type: cell-based
[25] = Stability in rat plasma assessed as half life; assay type: ADME, cell-free
[26] = target: T1, Protein cereblon/Hepatocyte growth factor receptor; assay: PROTAC activity at c-Met/CRBN in human EBC-1 cells assessed as reduction in c-Met level at 3.9 to 125 nM incubated for 24 hrs in presence of tepotinib by Western blot analysis; assay type: cell-based; details: dose 3.9-125 nM
[27] = Volume of distribution at steady state in Sprague-Dawley rat at 2 mg/kg, iv measured upto 24 hrs by LC-MS/MS analysis; assay type: ADME, organism-based; details: in vivo
[28] = AUC (0 to t) in Sprague-Dawley rat at 2 mg/kg, iv measured upto 24 hrs by LC-MS/MS analysis; assay type: ADME, organism-based; details: in vivo
[29] = test system: EBC-1; assay: Antitumor activity against human EBC-1 cells xenografted in ip dosed BALB/c nude mouse assessed as reduction in tumor growth administered for 7 days; assay type: functional, organism-based; details: dose 10-20 mg/kg, time 7.0 day
[30] = AUC (0 to t) in Sprague-Dawley rat at 5 mg/kg, ip measured upto 24 hrs by LC-MS/MS analysis; assay type: ADME, organism-based; details: in vivo
[31] = test system: EBC-1; assay: Antiproliferative activity against human EBC-1 cells assessed as cell viability incubated for 72 hrs by MTT assay; assay type: functional, cell-based; details: EBC-1, 72 h
[32] = target: T1, Protein cereblon/Hepatocyte growth factor receptor; assay: PROTAC activity at c-Met/CRBN in human A549 cells assessed as reduction in c-Met level at 3.9 to 125 nM incubated for 24 hrs in presence of tepotinib by Western blot analysis; assay type: cell-based; details: dose 3.9-125 nM
[33] = test system: EBC-1; assay: Induction of apoptosis in human EBC-1 cells assessed as late apoptotic cells at 5 nM incubated for 24 hrs by Annexin V/FITC staining based flow cytometry analysis (reference value: 1.65 %); assay type: functional
[34] = test system: EBC-1; assay: Induction of apoptosis in human EBC-1 cells assessed as upregulation of PARP level incubated for 24 hrs by Western blot analysis; assay type: functional, cell-based; details: dose 5-50 nM
[35] = AUC (0 to infinity) in Sprague-Dawley rat at 5 mg/kg, ip measured upto 24 hrs by LC-MS/MS analysis; assay type: ADME, organism-based; details: in vivo
[36] = Metabolic stability in rat liver microsome assessed as half life; assay type: ADME; details: liver microsomes
[37] = test system: EBC-1; assay: Inhibition of colony formation in human EBC-1 cells at 3.9 to 15.6 nM incubated for 7 days by crystal violet staining based analysis; assay type: functional, cell-based; details: dose 3.9-15.6 nM, time 7.0 day
[38] = target: T1, Protein cereblon/Hepatocyte growth factor receptor; assay: PROTAC activity at c-Met/CRBN in human A549 cells assessed as induction of c-Met degradation at 100 nM incubated for 24 hrs by Western blotting analysis relative to control; assay type: cell-based

T1 sequence (P08581 25-1390 limits assumed): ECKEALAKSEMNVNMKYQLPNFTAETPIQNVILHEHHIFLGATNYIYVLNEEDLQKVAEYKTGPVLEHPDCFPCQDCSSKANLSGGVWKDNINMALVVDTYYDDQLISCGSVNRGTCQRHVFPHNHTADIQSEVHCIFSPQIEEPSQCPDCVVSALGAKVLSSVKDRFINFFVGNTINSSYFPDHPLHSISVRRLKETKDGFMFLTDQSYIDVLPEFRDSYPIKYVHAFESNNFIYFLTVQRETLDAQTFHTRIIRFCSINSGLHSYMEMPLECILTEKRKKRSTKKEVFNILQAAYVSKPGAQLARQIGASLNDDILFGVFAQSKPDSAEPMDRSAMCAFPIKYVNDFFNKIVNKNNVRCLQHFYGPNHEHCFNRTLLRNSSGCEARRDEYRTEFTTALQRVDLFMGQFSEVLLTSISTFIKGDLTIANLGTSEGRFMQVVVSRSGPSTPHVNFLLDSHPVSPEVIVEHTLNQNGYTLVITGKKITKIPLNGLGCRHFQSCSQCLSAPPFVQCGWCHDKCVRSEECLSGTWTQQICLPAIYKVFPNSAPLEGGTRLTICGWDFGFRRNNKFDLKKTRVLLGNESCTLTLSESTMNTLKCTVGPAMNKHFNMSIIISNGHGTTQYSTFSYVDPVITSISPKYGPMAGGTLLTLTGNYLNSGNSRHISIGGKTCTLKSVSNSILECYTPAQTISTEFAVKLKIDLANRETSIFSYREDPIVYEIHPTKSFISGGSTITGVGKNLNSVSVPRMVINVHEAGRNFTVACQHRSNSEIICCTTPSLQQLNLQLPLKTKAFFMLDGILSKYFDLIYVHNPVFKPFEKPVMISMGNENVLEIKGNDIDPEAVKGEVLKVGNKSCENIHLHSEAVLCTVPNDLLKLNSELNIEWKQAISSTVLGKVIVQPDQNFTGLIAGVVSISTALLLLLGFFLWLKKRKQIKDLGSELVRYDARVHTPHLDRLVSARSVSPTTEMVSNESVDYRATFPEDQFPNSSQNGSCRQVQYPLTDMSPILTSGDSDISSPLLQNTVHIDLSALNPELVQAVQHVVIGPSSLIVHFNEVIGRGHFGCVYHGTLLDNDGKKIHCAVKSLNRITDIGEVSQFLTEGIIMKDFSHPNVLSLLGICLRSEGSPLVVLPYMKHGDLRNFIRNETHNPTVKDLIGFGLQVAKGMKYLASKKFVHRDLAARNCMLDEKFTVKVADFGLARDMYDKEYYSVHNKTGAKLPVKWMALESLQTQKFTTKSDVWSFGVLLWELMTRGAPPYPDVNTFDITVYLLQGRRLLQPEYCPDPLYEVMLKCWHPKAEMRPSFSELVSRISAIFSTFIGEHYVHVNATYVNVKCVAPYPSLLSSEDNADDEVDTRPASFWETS
T1 sequence (Q96SW2 whole entry partner): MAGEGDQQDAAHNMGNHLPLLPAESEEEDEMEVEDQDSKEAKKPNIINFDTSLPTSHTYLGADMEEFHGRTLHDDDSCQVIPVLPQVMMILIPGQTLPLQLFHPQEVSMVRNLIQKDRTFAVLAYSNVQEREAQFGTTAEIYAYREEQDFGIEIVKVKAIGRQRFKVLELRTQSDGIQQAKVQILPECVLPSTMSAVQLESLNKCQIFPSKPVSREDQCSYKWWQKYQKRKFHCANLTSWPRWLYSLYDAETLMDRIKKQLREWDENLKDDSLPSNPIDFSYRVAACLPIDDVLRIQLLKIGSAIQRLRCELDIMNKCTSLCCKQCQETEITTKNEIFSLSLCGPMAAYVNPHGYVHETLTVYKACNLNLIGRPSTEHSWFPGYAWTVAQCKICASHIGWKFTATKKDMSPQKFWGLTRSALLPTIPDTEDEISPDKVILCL

With COc1ccc(C(=O)N2CCC3(CCN(C(=O)CN4CCC(COc5cnc(-c6cccc(Cn7nc(-c8cccc(C#N)c8)ccc7=O)c6)nc5)CC4)CC3)CC2)cc1N1CCC(=O)NC1=O the Activity [1] was “Active”, the Activity [2] was “Non-toxic” and the Tmax [3] was 2 h. It also gave an MRT last at 24 h [4] of 2.49 h, a half-life [5] of 21.7 min and an Activity [6] of 90.3%. It also gave a Tmax [7] of 5.04 min, an Activity [8] of 3.47% and an IC50 [9] of 8 nM. The Activity [10] was “inactive”, the MRT [11] was 3.58 h and the Activity [12] was 30.8%. For the same compound, the Activity [13] was 86.14%, the Activity [14] was “No effect” and the Activity [15] was “Dose-dependent-effect”. For the same compound, the Activity [16] was “Non-toxic”, the Activity [17] was “Active” and the Activity [18] was “inactive”. The Activity [19] was “Non-toxic”, the viability at 0.015 µM [20] was 65% and the Activity [21] was “Active”. For the same compound, the Activity [22] was 3.66%, the Activity [23] was “Active” and the Activity [24] was “Active”. The half-life [25] was over 120 min, the Activity [26] was “inactive” and the Vdss [27] was 36.26 L/kg. For the same compound, the AUCt [28] was 532 ng·h/mL, the Activity [29] was “Dose-dependent-effect” and the AUCt [30] was 655 ng·h/mL. The IC50 [31] was 4 nM, the Activity [32] was “inactive” and the Activity [33] was 3.43%. The Activity [34] was “Dose-dependent-effect”, the AUC(0-inf) [35] was 678 ng·h/mL and the half-life [36] was 133 min. The inhibition [37] was “Active” and the Activity [38] was “inactive”.
